This note sets out measurements from patent publication US9029401B2 (The Regents of the University of California, priority 2011, dated 2015).

The structures appear in SMILES notation. Like-named read-outs stand apart in the source and are kept apart here.

For one test, the target named is human sEH (Homo sapiens (Human), UniProt P34913). Kind of test: Inhibitory activity against human sEH. The class given is biochemical.
A further test deals with Raf-1 (Homo sapiens (Human), UniProt P04049). Kind of test: In vitro kinase inhibition assay (ADP-Glo), Raf-1. The format is biochemical. As to the method:
All measurements included background and control (vehicle only) luminescence readings.
The kinases Raf-1 and b-Raf (V600E), and their corresponding substrate, MEK1, and Full length recombinant CRAF kinase and its respective substrate, recombinant MEK1, were purchased from US Biological (Swampscott, Mass.). All assays were performed under identical conditions for the Raf isozymes: 10 nM Enzyme, 1 μM MEK1, 10 μM ATP, at 22° C. for 2 hours. […] IC50 values were obtained by determining the change in the ADP production (luminescence signal) at various inhibitor concentrations as compared to the control assay. Individual data sets were performed in duplicate and each IC50 was determined by the average and standard deviation of three separate experiments.
Full length recombinant CRAF kinase and its respective substrate, recombinant MEK1, were purchased from US Biological (Swampscott, Mass.). All assays were performed at 10 nM CRAF, 1 μM MEK1, 10 μM ATP, at 22° C. for 2 hours. […] IC50 values were obtained by determining the change in the ADP production (luminescent signal) at various inhibitor concentrations as compared to the control assay. Individual data sets were performed in duplicate and each IC50 was determined by the mean and standard deviation of three separate experiments.
In general terms: ADP-Glo first removes unused ATP, then detects ADP through luciferase.

[1] abbreviates: 10 nM enzyme, 1 μM MEK1, 10 μM ATP, 22° C., 2 hours, read-out: Raf-1 IC50.

Raf-1, sequence (P04049 whole entry): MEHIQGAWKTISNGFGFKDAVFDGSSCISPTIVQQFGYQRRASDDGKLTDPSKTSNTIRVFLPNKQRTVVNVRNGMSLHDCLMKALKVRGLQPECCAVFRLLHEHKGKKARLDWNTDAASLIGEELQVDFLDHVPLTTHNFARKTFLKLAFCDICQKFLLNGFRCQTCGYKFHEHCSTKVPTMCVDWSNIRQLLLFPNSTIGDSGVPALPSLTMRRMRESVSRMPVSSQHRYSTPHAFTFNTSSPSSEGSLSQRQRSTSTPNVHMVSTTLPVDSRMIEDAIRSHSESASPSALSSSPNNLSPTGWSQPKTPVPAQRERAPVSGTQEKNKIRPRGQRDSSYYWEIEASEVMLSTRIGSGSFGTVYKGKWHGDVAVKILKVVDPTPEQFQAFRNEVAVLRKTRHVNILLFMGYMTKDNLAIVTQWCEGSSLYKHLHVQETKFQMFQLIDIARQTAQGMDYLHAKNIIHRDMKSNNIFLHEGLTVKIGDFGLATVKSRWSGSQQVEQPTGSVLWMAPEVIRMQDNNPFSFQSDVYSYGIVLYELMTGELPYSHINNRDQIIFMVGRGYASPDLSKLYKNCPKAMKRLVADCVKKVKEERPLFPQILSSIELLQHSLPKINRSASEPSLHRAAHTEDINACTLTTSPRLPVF
human sEH, sequence (P34913 whole entry): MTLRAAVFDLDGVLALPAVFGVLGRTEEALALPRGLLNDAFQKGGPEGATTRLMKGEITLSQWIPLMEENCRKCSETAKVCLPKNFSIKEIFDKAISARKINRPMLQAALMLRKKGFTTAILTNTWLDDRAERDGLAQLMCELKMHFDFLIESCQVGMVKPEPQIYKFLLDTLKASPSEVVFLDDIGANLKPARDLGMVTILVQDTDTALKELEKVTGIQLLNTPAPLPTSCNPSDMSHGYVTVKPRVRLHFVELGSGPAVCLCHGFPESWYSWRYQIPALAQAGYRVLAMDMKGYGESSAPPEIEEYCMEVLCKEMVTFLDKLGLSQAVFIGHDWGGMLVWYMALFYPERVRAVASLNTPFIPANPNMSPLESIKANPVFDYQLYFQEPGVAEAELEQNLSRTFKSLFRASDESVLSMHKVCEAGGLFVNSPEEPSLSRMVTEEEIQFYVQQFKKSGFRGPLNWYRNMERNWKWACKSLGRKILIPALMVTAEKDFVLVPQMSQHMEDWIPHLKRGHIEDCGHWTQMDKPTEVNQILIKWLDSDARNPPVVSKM

The term IC50 denotes the midpoint of a concentration-inhibition curve. Turning to `CCOC(=O)c1ccc(O[C@H]2CC[C@@H](NC(=O)Nc3ccc(OC(F)(F)F)cc3)CC2)cc1` [Compound 1612, reference compound], at human sEH (read-out: Human sEH IC50), the IC50 came out at 3.4 nM.
With `O=C(Nc1ccc(Cl)cc1)N[C@H]1CC[C@H](Oc2ccc(C(=O)O)cc2)CC1` [Compound 2084, trans-4-{4-[3-(4-Chloro-phenyl)-ureido]-cyclohexyloxy}-benzoic acid], the values for the IC50 at Raf-1 (setting [1]) and at human sEH (read-out: Human sEH IC50) were more than 10000 nM and 5.5 nM, respectively.
Take `N#Cc1ccc(O[C@H]2CC[C@H](NC(=O)Nc3ccc(Cl)c(C(F)(F)F)c3)CC2)cc1` [Compound 2182, trans-1-(4-Chloro-3-trifluoromethyl-phenyl)-3-[4-(4-cyano-phenoxy)-cyclohexyl]-urea]: at human sEH, half-maximal inhibition (IC50) was put at 14.6 nM.
`CNC(=O)c1ccc(O[C@H]2CC[C@@H](NC(=O)Nc3ccc(OC(F)(F)F)cc3)CC2)cc1` [Compound 2228, cis-N-Methyl-4-{4-[3-(4-trifluoromethoxy-phenyl)-ureido]-cyclohexyloxy}-benzamide] had a concentration for half-maximal inhibition (IC50) on Raf-1 of more than 10000 nM.
With `CNC(=O)c1ccc(O[C@H]2CC[C@H](NC(=O)Nc3ccc(Cl)c(C(F)(F)F)c3)CC2)cc1` [Compound 2253, trans-4-{4-[3-(4-Chloro-3-trifluoromethyl-phenyl)-ureido]-cyclohexyloxy}-N-methyl-benzamide], the IC50 on human sEH (read-out: Human sEH IC50) stood at 0.5 nM.
`CC(C)(C)OC(=O)c1ccc(O[C@H]2CC[C@H](NC(=O)Nc3ccc(Cl)c(C(F)(F)F)c3)CC2)cn1` [Compound 2315, trans-5-{4-[3-(4-Chloro-3-trifluoromethyl-phenyl)-ureido]-cyclohexyloxy}-pyridine-2-carboxylic acid tert-butyl ester]: the concentration for half-maximal inhibition (IC50) at Raf-1 (setting [1]) was more than 10000 nM; at human sEH (read-out: Human sEH IC50), 0.5 nM.
In the case of `O=C(Nc1ccc(C(F)(F)F)cc1)N[C@H]1CC[C@H](Oc2ccc(C(=O)O)cc2)CC1` [Compound 2372, trans-4-{4-[3-(4-Trifluoromethyl-phenyl)-ureido]-cyclohexyloxy}-benzoic acid], the concentration for half-maximal inhibition (IC50) at Raf-1 (setting [1]) is more than 10000 nM; on human sEH (read-out: Human sEH IC50), 0.9 nM.
Consider `CCN(CC)C(=O)c1cc(O[C@H]2CC[C@H](NC(=O)Nc3ccc(Cl)c(C(F)(F)F)c3)CC2)ccn1` [Compound 2574, trans-4-{4-[3-(4-Chloro-3-trifluoromethyl-phenyl)-ureido]-cyclohexyloxy}-pyridine-2-carboxylic acid diethylamide], for which the IC50 on Raf-1 (setting [1]) is more than 10000 nM; on human sEH (read-out: Human sEH IC50), 0.5 nM.
Take `CCN(CC)C(=O)c1cc(O[C@H]2CC[C@H](NC(=O)Nc3ccc(OC(F)(F)F)cc3)CC2)ccn1` [Compound 2577, trans-4-{4-[3-(4-Trifluoromethoxy-phenyl)-ureido]-cyclohexyloxy}-pyridine-2-carboxylic acid diethylamide]: the IC50 at human sEH (read-out: Human sEH IC50) turned out to be 0.5 nM.
The same measure, in the same setting: the same measure for `O=C(Nc1ccc(OC(F)(F)F)cc1)N[C@H]1CC[C@H](Oc2ccnc(C(=O)N3CCCC3)c2)CC1` [Compound 2578, trans-1-{4-[2-(Pyrrolidine-1-carbonyl)-pyridin-4-yloxy]-cyclohexyl}-3-(4-trifluoromethoxy-phenyl)-urea]: 0.5 nM; for `N#Cc1ccc(O[C@H]2CC[C@H](NC(=O)Nc3ccc(C(F)(F)F)cc3)CC2)cc1` [Compound 2579, trans-1-[4-(4-Cyano-phenoxy)-cyclohexyl]-3-(4-trifluoromethyl-phenyl)-urea]: 0.5 nM; for `N#Cc1ccc(O[C@H]2CC[C@H](NC(=O)Nc3ccc(Cl)cc3)CC2)cc1` [Compound 2580, trans-1-(4-Chloro-phenyl)-3-[4-(4-cyano-phenoxy)-cyclohexyl]-urea]: 0.5 nM.
Turning to `N#Cc1ccc(O[C@H]2CC[C@H](NC(=O)Nc3ccc(OC(F)(F)F)cc3)CC2)cc1` [Compound 2581, trans-1-[4-(4-Cyano-phenoxy)-cyclohexyl]-3-(4-trifluoromethoxy-phenyl)-urea], the IC50 at human sEH (read-out: Human sEH IC50) stood at 0.5 nM.
